Legend:
[1] = system: PLC/PRF/5 hepatocellular carcinoma cell line; experiment: Tumoursphere formation in 96-well, PLC/PRF/5; format: cell-based, human
[2] = system: HT29 colon cancer cells; experiment: Tumoursphere formation in 96-well, HT29; format: cell-based, human; settings: 5 days; for Number of wells with sphere: HT29, 3 μM Dox equivalent
Protocol: Under non-adherent and serum-free conditions, only the cancer stem cells (CSCs) and progenitor cells survive and undergo self-renewal as well as proliferate to form tumour spheres. The inventor studied the ability of aptamer-Dox to target cancer stem cells by plating various cell doses of single-cell suspension of HT29 colon cancer cells in ultra-low attachment 96-wells in the presence of 3 μM of free Dox, 3 μM equivalent Dox conjugated with aptamer, 3 μM Dox-negative control aptamer or vehicle control for 5 days. Tumour spheres (with a size >50 μm) were enumerated.

[3] = system: HT29 spheres; experiment: FACS analysis of CSC markers in treated HT29 spheres; format: cell-based, human; settings: HT29 spheres after treatment
Excerpt: Salinomycin (Sal), known to target CSC^23, was used as a positive control to validate our assays.

[4] = system: MCF-7/ADR tumours; experiment: CSC marker status in in vivo treated MCF-7/ADR tumours (flow cytometry); design: species or system mice; settings: treated 3 times in a week; 1 nmol PEG-chimera, 5 mg/kg doxorubicin; n=8
Protocol: A 20-kDa PEG was attached to the 5′-end of siRNA-aptamer-chimera in order to extend its systemic circulation time. […] Day 2 after the last (third) treatment, tumours were removed, its weight determined and the percentage of breast cancer stem cell marker (EpCAM^+/CD44^+/CD24^−) positive cells in the treatment groups and various control groups was studied via flow cytometray.
MCF-7/ADR tumours ([…]) were treated 3 times in a week with 1 nmol PEG-chimera+5 mg/kg doxorubicin. Single cell suspension was prepared for flow cytometry (n=8). Remarks

[5] = system: HT29 cells; experiment: Tumour formation ex vivo: in vitro treated HT29 cells xenotransplanted; design: species or system NOD/SCID mice; settings: cells treated 3 μM, 5 days, Day 50
Excerpt: As sphere formation is a surrogate assay for in vivo tumourigenicity, the inventor examined whether the in vitro treated cells could generate tumours upon xenotransplantation. […] As shown in FIG. 12 and Table 4, free Dox-treated cells formed tumours in every mouse studied but no tumour was detected in mice cells (Table 4) at Day 50 after receiving aptamer-Dox-treated tumour implantation.

[6] = system: MCF7/ADR tumour; experiment: Xenotransplantation-LDA of in vivo treated MCF7/ADR tumours; settings: 1 nmole chimera, 5 mg/kg Dox, Day 50
Protocol: An orthotopic breast cancer model was established by implanting 3×10^6 MCF7/ADR cells (mixed with Matrigel) per site in NOD-SCID mice. When tumours reached a volume of ˜200 mm^3, we started treatment via tail vein injection. The mice (n=5) were treated at Day 1, 3, 5, with i.v. (bolus) injection of 1 nmole of EpCAM aptamer-siRNA chimera; and Day 2, 4, 6, with i.v. (bolus) injection of 5 mg/kg doxorubicin. The animals were euthanized on Day 10 and tumours harvested and subjected to xenotransplantation and in vivo extreme limiting dilution analysis.

[7] = system: MCF7/ADR cells; experiment: Tumourigenicity ex vivo: treated MCF7/ADR cells xenotransplanted, extreme limiting dilution; format: in vivo, NOD/SCID mice; settings: 20 nM chimera, 300 nM Dox, Day 40
Protocol: The inventor hypothesized that the CSC-targeted delivery of survivin siRNA would make CSC sensitive to Dox. Indeed, after treatment (without transfection reagent) with 20 nM chimera plus 300 nM Dox for 72 h, there was a ˜80% reduction in the number of mammospheres in both the first and second round of tumoursphere assays (not shown), indicating a significant portion of cancer stem cells had been eliminated. The inventor further confirmed the effect of the chimera plus Dox on cancer stem cells' tumourigenicity by xenotransplanting treated cells into the 4th inguinal mammary fat pads of NOD/SCID mice coupled with an extreme limiting dilution analysis to assess CSC frequency (at Day 40 alter implantation) (Table 6).

[8] = system: HT29 cell populations; experiment: Extreme limiting dilution/xenotransplantation assay (ELDA) of treated HT29 tumours; format: in vivo, NOD/SCID mice; settings: 9 weeks after inoculation
Excerpt: The inventor first studied whether the aptamer-Dox conjugate could efficiently target tumour in vivo via live animal imaging with an on-site IVIS Lumina II imaging station. […] The ability of aptamer-Dox to target CSC was further tested in vivo using the gold standard extreme limiting dilution/xenotransplantation assay (ELDA). To this end, the inventor injected 1×10^6 HT29 cells s.c. into NOD/SCID mice. When tumours reached a size of 3 mm, the mice were randomized and treated serially for 3 days at a daily dose of 5 mg/Kg of either free Dox, EpCAM aptamer-Dox or control aptamer-Dox via tail vein injection. Mice were sacrificed one week after the last treatment. […] The experiment as repeated and single cell suspensions prepared from the treated tumours (as in FIG. 14) and ELDA (Extreme limiting dilution analysis) performed to assess the effect on CSC frequency.

COc1cccc2c1C(=O)c1c(O)c3c(c(O)c1C2=O)C[C@@](O)(C(=O)CO)C[C@@H]3O[C@H]1C[C@H](N)[C@H](O)[C@H](C)O1 [Free Dox, doxorubicin]
Number of wells with sphere ([1]; 1 cell seeded/well): 0/10
Number of wells with sphere ([1]; 10 cells seeded/well): 10/10
Number of wells with sphere ([1]; 100 cells seeded/well): 10/10
Number of wells with sphere ([1]; 200 cells seeded/well): 10/10
effect on HT29 tumour sphere formation (in words) ([2]; 3 μM Dox): no effect
Number of wells with sphere ([2]; 1 cell seeded/well): 0/10
Number of wells with sphere ([2]; 10 cells seeded/well): 10/10
Number of wells with sphere ([2]; 100 cells seeded/well): 10/10
Number of wells with sphere ([2]; 200 cells seeded/well): 10/10
EpCAM^high/CD44^high/CD24^high cells [3]: 91%
Percentage EpCAM+/CD44+/CD24− [4]: 11.6
No. tumour/No. mice ([5]; 1 × 10^5 cells injected): 5/5
No. tumour/No. mice ([5]; 1 × 10^6 cells injected): 5/5
No. of tumours/no. of mice ([6]; 0.5 × 10^6 cells injected): 0/4
No. of tumours/no. of mice ([6]; 1 × 10^6 cells injected): 1/4
No. of tumours/no. of mice ([6]; 3 × 10^6 cells injected): 3/4
No. of tumours/no. of mice ([6]; 5 × 10^6 cells injected): 4/4
No. of tumours/no. of mice ([7]; 0.5 × 10^6 cells injected): 0/5
No. of tumours/no. of mice ([7]; 1 × 10^6 cells injected): 1/5
No. of tumours/no. of mice ([7]; 3 × 10^6 cells injected): 3/5
No. of tumours/no. of mice ([7]; 5 × 10^6 cells injected): 5/5
No. tumour/No. mice ([8]; 1 × 10^4 cells injected): 0/6
No. tumour/No. mice ([8]; 1 × 10^5 cells injected): 6/6
No. tumour/No. mice ([8]; 1 × 10^6 cells injected): 6/6

Reference: patent publication US9567586B2, “EpCAM aptamer for detection of cancer stem cells” (DEAKIN UNIVERSITY, priority 2012, dated 2017)
